From US9964534B2, “Method of making a skin care composition” (The Procter & Gamble Company, priority 2014, dated 2018)

B1: HMGB1: recombinant HIS-tagged HMGB1 available from Sigma; high-mobility group protein B1, SEQ ID No. 1 (protein, listed as Homo sapiens)
chain: MGKGDPKKPRGKMSSYAFFVQTCREEHKKKHPDASVNFSEFSKKCSERWKTMSAKEKGKFEDMAKADKARYEREMKTYIPPKGETKKKFKDPNAPKRPPSAFFLFCSEYRPKIKGEHPGLSIGDVAKKLGEMWNNTAADDKQPYEKKAAKLKEKYEKDIAAYRAKGKPDAAKKGVVKAEKSKKKKEEEEDEEDEEDEEEEEDEEDEDEEEDDDDE
modifications: His tag

Tests used:
[1] = system: HMGB1; test: HMGB1 quantitation from keratinocytes (ELISA of supernatant, normalized to total protein); assay type: cell-based; conditions: for HMGB1 levels relative to the control: result in words
Method: Make a 210 mL suspension of keratinocytes at 40,000 cells/mL using suitable media to make a cell suspension. Place 2 mL of the cell suspension into the appropriate number of wells of one or more 12-well plates as needed, using the same velocity and insertion angle for each well as cells are pipetted. Incubate the 12-well plates overnight at 37° C. If the cell plating quality is poor (e.g., cells are not attached to plate or seeding density is uneven), discard and start over. Prepare a dosing media by diluting the test agent to the desired concentration (e.g., from 0.0001% to 10%) in a suitable media (e.g., the same media used to make the cell suspension). […] It is not uncommon for skin care actives to be included in skin care compositions at these levels. Optionally, include sufficient solublizer to provide 0.1% solublizer in the test sample. Add 2 mL of dosing media into each well of a 12-well plate and incubate at 4° C. overnight or until test agent is to be added to the test sample. Place prepared dosing media in the 37° C. incubator for at least 30 minutes, or until pH has equalized. When dosing media is warmed and at proper pH, dose the cells. Incubate the dosed cells at 37° C. for 6 hours. Keratinocytes (or other cells) are plated out in 12 well plates as described above with a seeding density of about […] and incubated overnight at 37° C. with 5% CO2. The keratinocytes are dosed with a dosing medium containing the test agent and the plates returned to the incubator for another 20 hours. The supernatant for each is collected and the HMGB1 level analyzed using ELISA (USCN Life Sciences) in accordance with manufacturer's instructions. The cells are lysed with Glo Lysis Buffer (Promega) and the protein levels determined using BCA kits (Pierce) per manufacturer's instructions. The values of HMGB1 determined by ELISA and normalized to total protein levels from the cells.

[2] = system: primary human melanocytes; test: Melanocyte dendricity and size measurements (Incucyte ZOOM live cell imaging); assay type: cell-based; conditions: melanocytes contacted with HMGB1, over the span of three days
Excerpt: The ability of a test agent to inhibit dendricity and cell body growth in melanocytes may be determined by contacting a sample of melanocytes with the test agent, measuring the change in dendricity and/or cell body growth and comparing the measured indicator to a control to determine if the test agent is identified as a skin tone agent. In some instances, it is important for the test sample to include a source of HMGB1. For example, an amount of HMGB1 (e.g., recombinant HIS-tagged HMGB1 available from Sigma) may be included in the test sample (e.g., at a final level of 0.1 μg/mL), or the test sample may include another type of cell, which can be stimulated to produce HMGB1. A control may be obtained by measuring the dendricity and/or cell body size of the melanocytes prior to contact with the test agent, measuring the dendricity and/or cell body size of the melanocytes in a control sample and/or from the dendricity and/or cell body size of melanocytes published in scientific literature, if available.
Primary human melanocytes (ATCC) are cultured for 2 passages in T150 flasks. For dendricity experiments, melanocytes are plated into 96 well plates (clear) at a density of about 5000 cells/well. The plates are placed into an Incucyte ZOOM® live cell imaging system (Essen Bioscience, Ann Arbor, Mich.) which resides inside a 37° C., 5% CO2 incubator. […]

| Molecule | HMGB1 levels relative to the control [1] | HMGB1 (pg)/protein (ug) ([1]; test agent 0.001%) [pg/ug protein] | HMGB1 (pg)/protein (ug) ([1]; test agent 0.005%) [pg/ug protein] | HMGB1 (pg)/protein (ug) ([1]; test agent 0.02%) [pg/ug protein] | cell body size of melanocytes relative to the control [2] | dendricity (dendrite length) of melanocytes relative to the control [2] |
| --- | --- | --- | --- | --- | --- | --- |
| hydroxycinnamic acid [HCA] | significantly reduced | 29 | 6 | 2 |  |  |
| methyl hydroxycinnamic acid [ME-HCA] | significantly reduced | 33 | 28 | 4 |  |  |
| B1 |  |  |  |  | significantly larger | significantly longer |
